From US10093675B2, “6,8-disubstituted-9-(heterocyclyl)purines, compositions containing these derivatives and their use in cosmetic and medicinal applications” (USTAV EXPERIMENTALNI BOTANIKY AV CR, V.V.I., priority 2014, dated 2018)
Read-outs that look alike come from different tables or passages of the source.

Experiments:
[1] = test system: T-lymphoblastic leukemia cell line CEM; test: In vitro cytotoxic activity (Calcein AM), CEM; format: cell-based, human; conditions: 72 hours, read-out: Cell line tested/IC50 (μmol/L) CEM
Excerpt: (§1) Because toxic compounds negatively influence metabolic processes of cells, many standard cytotoxicity assays are based on measurement of metabolisation rate of various artificial substrates. Resulting product is then quantified, for example, by means of spectrometry. The assays can be easily modified for use in 96-well plates. For evaluation of cytotoxicity of the […] of this invention, a microtiter assay based on quantification of metabolisation of Calcein AM was used. The assay is widely used in drug screening programs and in chemosensitivity testing. In live cells, Calcein AM is enzymatically hydrolysed and accumulation of resulting calcein is manifested by green fluorescence.
(§2) The following human cell lines were used for routine screening of the compounds: normal diploid fibroblasts BJ, T-lymphoblastic leukemia cell line CEM, promyelocytic leukemia cell line HL-60, erytroid leukemia cell line K-562, breast carcinoma cell line MCF-7, osteosarcoma cell line HOS and melanoma cell line G-361. The cells were maintained in Nunc/Corning 80 cm^2 plastic tissue culture flasks and cultured in cell culture medium (DMEM with 5 g/l glucose, 2 mM glutamine, 100 U/ml penicillin, 100 mmg/ml streptomycin, 10% fetal calf serum and sodium bicarbonate). The cell suspensions were prepared and diluted according to the particular cell type and the expected target cell density (2.500-30.000 cells per well based on cell growth characteristics) and pipetted (80 μl) into 96-well plates. Inoculates were allowed a pre-incubation period of 24 hours at 37° C. and 5% CO2 for stabilization. Tested compound was added in total volume of 20 μl of water at time zero. Usually, test compound was evaluated at six 3-fold dilutions. In routine testing, the highest concentration tested was 100 μM, but it could have been adjusted because of limited solubility of a compound. All drug concentrations were tested in triplicates.
(§3) Incubations of cells with the test compounds lasted for 72 hours at 37° C., in 5% CO2 atmosphere and 100% humidity. At the end of incubation period Calcein AM in PBS was added into final concentration of 1 μg/ml. After another 1 hour of incubation fluorescence (FD) was measured with the Labsystem FIA Reader Fluoroscan Ascent (UK). Growth inhibition (GI) was estimated using the following equitation: GI=(mean FDdrug exposed wells−mean FDblank)/(mean FDcontrol wells−mean FDblank)×100%. The GI50 value, the drug concentration causing 50% reduction of Calcein AM conversion, was calculated from the obtained dose response curves.

[2] = test system: osteosarcoma cell line HOS; test: In vitro cytotoxic activity (Calcein AM), HOS; format: cell-based, human; conditions: 72 hours, read-out: Cell line tested/IC50 (μmol/L) HOS
Excerpt: as §1, §2, §3

[3] = test system: normal diploid fibroblasts BJ; test: In vitro cytotoxic activity (Calcein AM), BJ; format: cell-based, human; conditions: 72 hours, read-out: Cell line tested/IC50 (μmol/L) BJ
Excerpt: as §1, §2, §3

[4] = test system: erytroid leukemia cell line K-562; test: In vitro cytotoxic activity (Calcein AM), K-562; format: cell-based, human; conditions: read-out: Cell line tested/IC50 (μmol/L) K-562
Excerpt: as §1, §2, §3

melanoma cell line G-361 = test: In vitro cytotoxic activity (Calcein AM), G-361; format: cell-based, human; conditions: read-out: Cell line tested/IC50 (μmol/L) G-361
Excerpt: as §1, §2, §3

[5] = test system: cytokinin-dependent tobacco callus Nicotiana tabacum L. cv. Wisconsin 38; test: Plant cell division: growth of cytokinin-dependent tobacco callus; format: cell-based; conditions: for Activity (%); (s.d.): relative activity at concentration with highest activity, 10^−6 M kinetin set at 100%; for Concentration with highest activity (mol/l): tobacco callus fresh weight increase after four weeks, tested 10^−8 M to 10^−4 M
Method: Cytokinin-dependent tobacco callus Nicotiana tabacum L. cv. Wisconsin 38 was maintained at 25° C. in darkness on modified MS medium, containing 4 μmol/l nicotinic acid, 2.4 μmol/l pyridoxine hydrochloride, 1.2 μmol/l thiamine, 26.6 μmol/l glycine, 1.37 μmol/l glutamine, 1.8 μmol/l myo-inositol, 30 g/l of sucrose, 8 g/l of agar, 5.37 μmol/l NAA and 0.5 μmol/l BAP. Subcultivation was carried out every three weeks. Fourteen days before the bioassay, the callus tissue was transferred to the media without BAP. Biological activity was determined from the increase in fresh callus weight after four weeks of cultivation. Five replicates were prepared for each cytokinin concentration and the entire test was repeated twice. From the obtained data, the concentration with highest activity was selected for each compound tested. Relative activity at this concentration was calculated (see Table 17 below). The activity obtained for 10^−6 M kinetin (Kin) was set as 100%.
The cytokinins to be tested were dissolved in dimethylsulfoxide (DMSO) and the solution brought up to 10^−3M with distilled water.

[6] = test system: Human diploid fibroblast BJ; test: In vitro cytotoxic activity (MTT); format: cell-based; conditions: 72 hours incubation; concentration causing 20% decrease in mitochondrial dehydrogenase activity
Method: MTT (metabolic tetrazolium toxicity) assay is a standard colorimetric assay for evaluation of cytotoxicity. Mitochondrial dehydrogenase activity converts yellow MTT into violet formazan which is measured by means of spectrometry.
Human diploid fibroblast BJ (passage 18-22) were seeded into 96-well plate (5.000 cells per well). After 6 hours cultivation medium (DMEM with 5 g/l glucose, 2 mM glutamine, 100 U/ml penicillin, 100 mmg/ml streptomycin, 10% fetal calf serum and sodium bicarbonate) was replaced with the cultivation medium containing test compounds in concentration range of 0-200 µM. Highest concentration was adjusted if the solubility of the compound was limiting. Every concentration was tested in pentaplicate. MTT was added to the cells after 72 hours incubation (final concentration 0.5 mg/ml) and incubation continued for another 3 hours. MTT was solubilised by DMSO and absorbance at 570 nm was measured. Growth inhibition (GI) was estimated using the following equitation: GI=(mean A drug exposed wells−mean Ablank/mean Acontrol wells−mean Ablank)×100%. The GI20 value, the drug concentration causing 20% decrease in mitochondrial dehydrogenase activity, was calculated from the obtained dose response curves.

[7] = test system: breast carcinoma cell line MCF-7; test: In vitro cytotoxic activity (Calcein AM), MCF-7; format: cell-based, human; conditions: read-out: Cell line tested/IC50 (μmol/L) MCF7
Excerpt: as §1, §2, §3

[8] = test system: Salmonella typhimurium histidien auxotrophs TA98 and TA100; test: Ames test; format: cell-based; conditions: 2.5 to 5000 μg/plate; presence and absence of Aroclor-induced rat liver S9
Method: A number of tests related to the safety of have been carried out using conventionally accepted protocols and procedures. The results of these studies are summarized herein. Tests were carried out using DMSO as solvent and dose levels of compound 21, 24, 26, 27, 39, 41, 45, 48, 50, 52, 53, 54, 55, 56, 63, 64, 66, 67, 68, 69, 70, 71, 72, 74, 76, 124, 125, 126, 127, 128, 129, 130, 145, 146, 147, 149, 150, 151, 208, 216, 218 a 243 at 2.5, 5.0, 15, 50, 500, 1500, and 5000 μg/plate based upon standard protocol and procedures (Ames et al., Mutation Research, 31, 347-364 (1975); Maron et al., Mutation Research, 113, 173-215 (1983)).

| Structure (SMILES) | IC50 ([1]; Homo sapiens) | IC50 ([2]; Homo sapiens) | IC50 ([3]; Homo sapiens, Fibroblast) | IC50 ([4]; Homo sapiens, K562, 72 hours) | IC50 (melanoma cell line G-361; Homo sapiens, G-361, 72 hours) | Activity (%); (s.d.) [5] | GI20 [6] | IC50 ([7]; Homo sapiens, MCF7, 72 hours) | IC50 [1] | IC50 [2] | IC50 [3] | IC50 ([4]; 72 hours) | IC50 (melanoma cell line G-361; 72 hours) | Concentration with highest activity (mol/l) [5] | IC50 ([7]; 72 hours) | mutagenic response [8] |
| --- | --- | --- | --- | --- | --- | --- | --- | --- | --- | --- | --- | --- | --- | --- | --- | --- |
| CC(C)=CCNc1ncnc2c1nc(Cl)n2C1CCCCO1 (stereo not shown) [Compound 3, 8-Chloro-6-(3-methylbut-2-en-1-ylamino)-9-(tetrahydropyran-2-yl)-9H-purine] | > 50 µmol/L | > 50 µmol/L | > 50 µmol/L | > 50 µmol/L | > 50 µmol/L | 118 (±6) % | >50 µM | > 50 µmol/L |  |  |  |  |  |  |  |  |
| CC(C)=CCNc1ncnc2c1nc(Br)n2C1CCCCO1 (stereo not shown) [Compound 23, 8-Bromo-6-(3-methylbut-2-en-1-ylamino)-9-(tetrahydropyran-2-yl)-9H-purine] | > 50 µmol/L | > 50 µmol/L | > 50 µmol/L | > 50 µmol/L | > 50 µmol/L | 125 (±7) % | >100 µM | > 50 µmol/L |  |  |  |  |  |  |  |  |
| CC(C)=CCNc1ncnc2c1nc(Cl)n2C1CCCO1 (stereo not shown) [Compound 65] |  |  |  |  |  | 127 (±9) % | >100 µM |  | > 50 µmol/L | > 50 µmol/L | > 50 µmol/L | > 50 µmol/L | > 50 µmol/L | 10^−6-10^−4 mol/l | > 50 µmol/L |  |
| COc1nc2c(NCc3ccccc3)ncnc2n1C1CCCCO1 (stereo not shown) [Compound 125] |  |  |  |  |  | 104 (±2) % | >100 µM |  | > 50 µmol/L | > 50 µmol/L | > 50 µmol/L | > 50 µmol/L | > 50 µmol/L | 10^−6-10^−4 mol/l | > 50 µmol/L | no positive mutagenic responses |
| COc1nc2c(NC/C=C(\C)CO)ncnc2n1C1CCCCO1 (stereo not shown) [Compound 126, (E)-6-(4-Hydroxy-3-methylbut-2-en-1-ylamino)-8-methoxy-9-(tetrahydropyran-2-yl)-9H-purine] | > 50 µmol/L | > 50 µmol/L | > 50 µmol/L | > 50 µmol/L | > 50 µmol/L | 116 (±6) % | >100 µM | > 50 µmol/L |  |  |  |  |  |  |  | no positive mutagenic responses |
| COc1nc2c(NCC=C(C)C)ncnc2n1C1CCCCO1 (stereo not shown) [Compound 127, 8-Methoxy-6-(3-methylbut-2-en-1-ylamino)-9-(tetrahydropyran-2-yl)-9H-purine] | > 50 µmol/L | > 50 µmol/L | > 50 µmol/L | > 50 µmol/L | > 50 µmol/L | 114 (±6) % | >100 µM | > 50 µmol/L |  |  |  |  |  |  |  | no positive mutagenic responses |
| COc1cccc(CNc2ncnc3c2nc(OC)n3C2CCCCO2)c1 (stereo not shown) [Compound 128] |  |  |  |  |  | 121 (±5) % | >100 µM |  | > 50 µmol/L | > 50 µmol/L | > 50 µmol/L | > 50 µmol/L | > 50 µmol/L | 10^−6-10^−5 mol/l | > 50 µmol/L | no positive mutagenic responses |
| COc1nc2c(NCc3cccc(O)c3)ncnc2n1C1CCCCO1 (stereo not shown) [Compound 129] |  |  |  |  |  | 111 (±4) % | >100 µM |  | > 50 µmol/L | > 50 µmol/L | > 50 µmol/L | > 50 µmol/L | > 50 µmol/L | 10^−6-10^−5 mol/l | > 50 µmol/L | no positive mutagenic responses |
| COc1nc2c(NCc3cccc(F)c3)ncnc2n1C1CCCCO1 (stereo not shown) [Compound 130] |  |  |  |  |  | 108 (±3) % | >100 µM |  | > 50 µmol/L | > 50 µmol/L | > 50 µmol/L | > 50 µmol/L | > 50 µmol/L | 10^−6-10^−4 mol/l | > 50 µmol/L | no positive mutagenic responses |
| CSc1nc2c(NC/C=C(\C)CO)ncnc2n1C1CCCCO1 (stereo not shown) [Compound 146] |  |  |  |  |  | 108 (±5) % | >100 µM |  | > 50 µmol/L | > 50 µmol/L | > 50 µmol/L | > 50 µmol/L | > 50 µmol/L | 10^−6-10^−5 mol/l | > 50 µmol/L | no positive mutagenic responses |
| CSc1nc2c(NCC=C(C)C)ncnc2n1C1CCCCO1 (stereo not shown) [Compound 147] |  |  |  |  |  | 112 (±2) % | >100 µM |  | > 50 µmol/L | > 50 µmol/L | > 50 µmol/L | > 50 µmol/L | > 50 µmol/L | 10^−6-10^−4 mol/l | > 50 µmol/L | no positive mutagenic responses |
| COc1nc2c(NCC=C(C)C)ncnc2n1C1CCCO1 (stereo not shown) [Compound 207] |  |  |  |  |  | 114 (±3) % | >100 µM |  | > 50 µmol/L | > 50 µmol/L | > 50 µmol/L | > 50 µmol/L | > 50 µmol/L | 10^−6-10^−4 mol/l | > 50 µmol/L |  |
| COc1cccc(CNc2ncnc3c2nc(OC)n3C2CCCO2)c1 (stereo not shown) [Compound 209] |  |  |  |  |  | 112 (±4) % | >100 µM |  | > 50 µmol/L | > 50 µmol/L | > 50 µmol/L | > 50 µmol/L | > 50 µmol/L | 10^−6-10^−4 mol/l | > 50 µmol/L |  |
